Assay results reported in BindingDB's records for doi:10.7270/Q2PG1Q6D (Burnham Center For Chemical Genomics, 2011).

Molecular target: T1, Protein Mdm4 (Homo sapiens, UniProt O15151)
T1 sequence (O15151 whole entry): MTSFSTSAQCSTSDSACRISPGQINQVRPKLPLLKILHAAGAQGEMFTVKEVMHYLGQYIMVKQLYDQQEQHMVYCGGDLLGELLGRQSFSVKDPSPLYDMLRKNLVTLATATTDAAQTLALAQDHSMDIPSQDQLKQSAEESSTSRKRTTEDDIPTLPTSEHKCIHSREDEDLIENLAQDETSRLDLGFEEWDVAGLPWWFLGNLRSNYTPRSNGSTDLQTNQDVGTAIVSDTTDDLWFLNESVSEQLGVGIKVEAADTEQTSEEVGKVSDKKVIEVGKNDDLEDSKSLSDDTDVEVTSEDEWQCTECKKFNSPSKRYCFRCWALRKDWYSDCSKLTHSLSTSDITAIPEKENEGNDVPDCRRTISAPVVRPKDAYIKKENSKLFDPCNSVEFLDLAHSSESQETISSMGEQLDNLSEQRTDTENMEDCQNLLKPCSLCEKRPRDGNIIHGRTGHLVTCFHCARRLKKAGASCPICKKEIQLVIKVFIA
Assay: disruption of Mdm2/MdmX protein binding – luminescence detection, dose response (AID 504593)

Cc1cc(N=NC(C)c2ccccc2O)nc(-c2ccccc2O)n1 (stereo unspecified) gave an IC50 of 6.71 µM.
